Columns and labels:
CD73 [1] = target: T1, CD73 (Homo sapiens, UniProt P21589); experiment: CD73 Biochemical IC50 Assay; conditions: CD73 enzyme (R&D system) final 0.3 nM, final AMP 15 uM, 60 mins incubation, Rapid fire
T1 sequence (P21589 27-549): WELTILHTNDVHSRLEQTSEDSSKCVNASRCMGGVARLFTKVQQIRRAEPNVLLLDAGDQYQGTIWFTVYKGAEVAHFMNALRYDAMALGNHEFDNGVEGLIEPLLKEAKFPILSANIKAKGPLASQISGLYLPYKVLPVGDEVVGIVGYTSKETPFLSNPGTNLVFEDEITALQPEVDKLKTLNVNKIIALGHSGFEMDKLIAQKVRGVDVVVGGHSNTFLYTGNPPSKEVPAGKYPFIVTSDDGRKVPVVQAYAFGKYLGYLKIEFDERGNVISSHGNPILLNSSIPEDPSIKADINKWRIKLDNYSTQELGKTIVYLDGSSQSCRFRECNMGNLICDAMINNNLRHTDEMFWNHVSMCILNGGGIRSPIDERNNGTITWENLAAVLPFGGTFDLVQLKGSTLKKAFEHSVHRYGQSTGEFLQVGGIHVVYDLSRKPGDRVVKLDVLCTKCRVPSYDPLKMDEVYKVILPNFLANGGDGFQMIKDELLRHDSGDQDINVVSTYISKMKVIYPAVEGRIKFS
Experimental: CD73 Biochemical IC50 Assay
Compound serial dilutions were pre-spotted into Thermo Nunc assay plate. 50 μL CD73 enzyme buffer (CD73 purchased from R&D system=0.6 nM, 25 mM Tris, pH 7.4, 5 mM MgCl2, 1 mM NaH2PO4) was added into the assay plate and incubated for 15 mins. […] After incubation for 60 mins, the supernatant 20 uL was transferred into 384-well NUNC plate pre-filled with 60 ul Quench buffer (80% organic and 20% water+0.1% FA) with internal standard. The plate was spun down at 4500 rpm for 20 mins, then 20 μl of supernatant was transferred to another Nunc plate prefilled with 80 μl of water. The samples were run using Rapid fire.

CD73 [2] = target: T1, CD73; experiment: MDA-MB-231 Cell Based CD73 Activity Assay (DMEM); parameters: endogenous in cells; host or cells: MDA-MB-231-GFP; conditions: MDA-MB-231-GFP cells, DMEM with 10% human plasma, overnight compound treatment, 200 uM AMP, 100 mins
Experimental: Cells were plated into assay plate with compounds pre-spotted, for an overnight compound treatment. 50 uL of 400 uM AMP (final concentration will be 200 uM) was added using Bio-tek dispenser. Plates were incubated for 100 mins. 20 uL of supernatant was transferred into 384-well NUNC plate pre-filled with 60 ul Quench buffer (80% organic and 20% water+0.1% FA) with internal standard. The plates were spun down at 4500 rpm for 20 mins, then 20 ul of supernatant was transferred to another Nunc plate prefilled with 80 ul of water. The samples were analyzed using Rapid fire.

Row | IC50 (CD73 [1]) [nM] | EC50 (CD73 [2]) [nM] | Structure (SMILES)
1 | 8.95 | 27.1 | COc1cc(N2C[C@H](Oc3cc4c(cn3)cnn4CC(F)(F)F)C(F)(F)C2)cc(-c2c[nH]c(=O)[nH]c2=O)n1 [Example 12, (S)-5-(4-(3,3-difluoro-4-((1-(2,2,2-trifluoroethyl)-1H-pyrazolo[4,3-c]pyridin-6-yl)oxy)pyrrolidin-1-yl)-6-methoxypyridin-2-yl)pyrimidine-2,4(1H,3H)-dione]
2 | 31.3 | > 50 | Cc1nc(-c2c[nH]c(=O)[nH]c2=O)cc(N2C[C@H](Oc3cc(C(F)(F)F)ccn3)C(F)(F)C2)n1 [Example 13, 5-[6-[(4S)-3,3-difluoro-4-[[4-(trifluoromethyl)-2-pyridyl]oxy]pyrrolidin-1-yl]-2-methyl-pyrimidin-4-yl]-1H-pyrimidine-2,4-dione]
3 | 4.21 | > 50 | Cc1nc(-c2c[nH]c(=O)[nH]c2=O)cc(N2C[C@H](Oc3ccc(F)c(OC(F)F)c3)C(F)(F)C2)n1 [Example 17, (S)-6-(4-(3-(difluoromethoxy)-4-fluorophenoxy)-3,3-difluoropyrrolidin-1-yl)-2-methyl-[4,5′-bipyrimidine]-2′,4′ (1′H,3′H)-dione]
4 | 13.1 | > 50 | Cc1nc(-c2c[nH]c(=O)[nH]c2=O)cc(N2C[C@H](OC(=O)NC(C)C)C(F)(F)C2)n1 [Example 29, (S)-4,4-difluoro-1-(2-methyl-2′,4′-dioxo-1′,2′,3′,4′-tetrahydro-[4,5′-bipyrimidin]-6-yl)pyrrolidin-3-yl isopropylcarbamate]
5 | 7.14 | 35.7 | O=c1[nH]cc(-c2cc(N3C[C@H](Oc4cc5c(cn4)cnn5CC(F)(F)F)C(F)(F)C3)nc(C(F)(F)F)n2)c(=O)[nH]1 [Example 6, (S)-6-(3,3-difluoro-4-((1-(2,2,2-trifluoroethyl)-1H-pyrazolo[4,3-c]pyridin-6-yl)oxy)pyrrolidin-1-yl)-2-(trifluoromethyl)-[4,5′-bipyrimidine]-2′,4′ (1′H,3′H)-dione]
6 | 12.8 | 22.5 | O=c1[nH]cc(-c2cc(N3C[C@H](Oc4cc5c(cn4)cnn5CC(F)(F)F)C(F)(F)C3)cc(C(F)(F)F)n2)c(=O)[nH]1 [Example 11, (S)-5-(4-(3,3-difluoro-4-((1-(2,2,2-trifluoroethyl)-1H-pyrazolo[4,3-c]pyridin-6-yl)oxy)pyrrolidin-1-yl)-6-(trifluoromethyl)pyridin-2-yl)pyrimidine-2,4(1H,3H)-dione]
7 | 10.2 | > 50 | Cc1nc(-c2c[nH]c(=O)[nH]c2=O)cc(N2C[C@H](Oc3cc(C(F)F)c(F)cn3)C(F)(F)C2)n1 [Example 15, (S)-6-(4-((4-(difluoromethyl)-5-fluoropyridin-2-yl)oxy)-3,3-difluoropyrrolidin-1-yl)-2-methyl-[4,5′-bipyrimidine]-2′,4′ (1′H,3′H)-dione]
8 | 8.7 | > 50 | Cc1nc(-c2c[nH]c(=O)[nH]c2=O)cc(N2C[C@H](Oc3ccncc3)C(F)(F)C2)n1 [Example 20, (S)-6-(3,3-difluoro-4-(pyridin-4-yloxy)pyrrolidin-1-yl)-2-methyl-[4,5′-bipyrimidine]-2′,4′ (1′H,3′H)-dione]
9 | 4.97 | 39.7 | Cc1nc(-c2c[nH]c(=O)[nH]c2=O)cc(N2C[C@H](Oc3ccnc(C(F)F)c3)C(F)(F)C2)n1 [Example 21, (S)-6-(4-((2-(difluoromethyl)pyridin-4-yl)oxy)-3,3-difluoropyrrolidin-1-yl)-2-methyl-[4,5′-bipyrimidine]-2′,4′ (1′ H,3′ H)-dione]
10 | 41 | 49 | Cc1cc(N2C[C@H](Oc3cc4c(cn3)cnn4CC(F)(F)F)C(F)(F)C2)cc(-c2c[nH]c(=O)[nH]c2=O)n1 [Example 10, (S)-5-(4-(3,3-difluoro-4-((1-(2,2,2-trifluoroethyl)-1H-pyrazolo[4,3-c]pyridin-6-yl)oxy)pyrrolidin-1-yl)-6-methylpyridin-2-yl)pyrimidine-2,4(1H,3H)-dione]
11 | 12.7 | 33.7 | CCc1nc(-c2c[nH]c(=O)[nH]c2=O)cc(N2C[C@H](Oc3cc4c(cn3)cnn4CC(F)(F)F)C(F)(F)C2)n1 [Example 1, (S)-6-(3,3-difluoro-4-((1-(2,2,2-trifluoroethyl)-1H-pyrazolo[4,3-c]pyridin-6-yl)oxy)pyrrolidin-1-yl)-2-ethyl-[4,5′-bipyrimidine]-2′,4′ (1′H,3′H)-dione]
12 | 25.7 | > 50 | O=c1[nH]cc(-c2cc(N3C[C@H](Oc4cc5c(cn4)cnn5CC(F)(F)F)C(F)(F)C3)nc(C3CC3)n2)c(=O)[nH]1 [Example 3, (S)-2-cyclopropyl-6-(3,3-difluoro-4-((1-(2,2,2-trifluoroethyl)-1H-pyrazolo[4,3-c]pyridin-6-yl)oxy)pyrrolidin-1-yl)-[4,5′-bipyrimidine]-2′,4′ (1′H,3′H)-dione]
13 | 14.4 | > 50 | Cc1nc(-c2c[nH]c(=O)[nH]c2=O)cc(N2C[C@H](Oc3cc4c(cnn4CC(F)(F)F)cc3F)C(F)(F)C2)n1 [Example 23, (S)-6-(3,3-difluoro-4-((5-fluoro-1-(2,2,2-trifluoroethyl)-1H-indazol-6-yl)oxy)pyrrolidin-1-yl)-2-methyl-[4,5′-bipyrimidine]-2′,4′ (1′H,3′H)-dione]
14 | 7.06 | > 50 | Cc1nc(OCC(F)(F)COC(=O)NC(C)C)cc(-c2c[nH]c(=O)[nH]c2=O)n1 [Example 26]
15 | 4.92 | > 50 | Cc1nc(-c2c[nH]c(=O)[nH]c2=O)cc(N2C[C@H](Oc3cc(OC(F)F)ccn3)C(F)(F)C2)n1 [Example 14, (S)-6-(4-((4-(difluoromethoxy)pyridin-2-yl)oxy)-3,3-difluoropyrrolidin-1-yl)-2-methyl-[4,5′-bipyrimidine]-2′,4′ (1′H,3′H)-dione]
16 | 13 | 34.8 | Cc1nc(-c2c[nH]c(=O)[nH]c2=O)cc(N2C[C@H](OC(=O)NC3(C(F)(F)F)CC3)C(F)(F)C2)n1 [Example 30, (S)-4,4-difluoro-1-(2-methyl-2′,4′-dioxo-1′,2′,3′,4′-tetrahydro-[4,5′-bipyrimidin]-6-yl)pyrrolidin-3-yl (1-(trifluoromethyl)cyclopropyl)carbamate]
17 | 7.67 | > 50 | Cc1cc(O[C@H]2CN(c3cc(-c4c[nH]c(=O)[nH]c4=O)nc(C)n3)CC2(F)F)ccn1 [Example 24, (S)-6-(3,3-difluoro-4-((2-methylpyridin-4-yl)oxy)pyrrolidin-1-yl)-2-methyl-[4,5′-bipyrimidine]-2′,4′ (1′H,3′H)-dione]
18 | 6.26 | 26 | Cc1nc(-c2c[nH]c(=O)[nH]c2=O)cc(N2C[C@H](Oc3ccc4cnn(CC(F)(F)F)c4c3)C(F)(F)C2)n1 [Example 19, (S)-6-(3,3-difluoro-4-((1-(2,2,2-trifluoroethyl)-1H-indazol-6-yl)oxy)pyrrolidin-1-yl)-2-methyl-[4,5′-bipyrimidine]-2′,4′ (1′H,3′H)-dione]
19 | 4.28 | 1.07 | Cc1nc(-c2c[nH]c(=O)[nH]c2=O)cc(N2C[C@H](Oc3ccnc(C4(C(F)(F)F)CC4)c3)C(F)(F)C2)n1 [Example 7, (S)-6-(3,3-difluoro-4-((2-(1-(trifluoromethyl)cyclopropyl)pyridin-4-yl)oxy)pyrrolidin-1-yl)-2-methyl-[4,5′-bipyrimidine]-2′,4′ (1′H,3′H)-dione]
20 | 4 | 5.31 | Cc1nc(-c2c[nH]c(=O)[nH]c2=O)cc(N2C[C@H](Oc3cc(C4(C(F)(F)F)CC4)ccn3)C(F)(F)C2)n1 [Example 25, (S)-6-(3,3-difluoro-4-((4-(1-(trifluoromethyl)cyclopropyl)pyridin-2-yl)oxy)pyrrolidin-1-yl)-2-methyl-[4,5′-bipyrimidine]-2′,4′ (1′H,3′H)-dione]
21 | 6.28 | > 50 | Cc1nc(-c2c[nH]c(=O)[nH]c2=O)cc(N2C[C@H](Oc3ccc(F)c(C(F)F)c3)C(F)(F)C2)n1 [Example 16, (S)-6-(4-(3-(difluoromethyl)-4-fluorophenoxy)-3,3-difluoropyrrolidin-1-yl)-2-methyl-[4,5′-bipyrimidine]-2′,4′ (1′ H,3′ H)-dione]

From patent publication US20240116928A1 (Gilead Sciences, Inc., priority 2022, published 2024)
